The values below come from patent US20230040182A1, “ARYL HETEROBICYCLIC COMPOUNDS AS Kv1.3 POTASSIUM SHAKER CHANNEL BLOCKERS” (priority 2019, published 2023).

The target in one experiment is T1, Kv1.3 potassium channel (Homo sapiens, UniProt P22001).
T1 construct: expressed in transfected cells
The experiment in a line: Kv1.3 potassium channel blocker activity, automated whole-cell patch clamp (Patchliner). Conditions: CHO-K1 cells stably expressing Kv1.3; whole-cell current, Hill fit. It is filed as cell-based. An outline of the steps:
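Stably transfected CHO-K1 cells, whole-cell automated patch clamp: 100 ms pulses from −90 to +40 mV at 0.1 Hz, 20-pulse trains, cumulative concentrations 30 nM–100 μM without washout (≤0.3% DMSO), external pH 7.4. IC50 from Hill fit of last-pulse peak/AUC normalized to compound-free control.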
A general note: The patch-clamp technique gives a direct electrical read-out from membranes.

The target of another experiment is T2, hERG channel (Homo sapiens, UniProt Q12809).
T2 construct: expressed in transfected cells
T2 sequence (Q12809 whole entry): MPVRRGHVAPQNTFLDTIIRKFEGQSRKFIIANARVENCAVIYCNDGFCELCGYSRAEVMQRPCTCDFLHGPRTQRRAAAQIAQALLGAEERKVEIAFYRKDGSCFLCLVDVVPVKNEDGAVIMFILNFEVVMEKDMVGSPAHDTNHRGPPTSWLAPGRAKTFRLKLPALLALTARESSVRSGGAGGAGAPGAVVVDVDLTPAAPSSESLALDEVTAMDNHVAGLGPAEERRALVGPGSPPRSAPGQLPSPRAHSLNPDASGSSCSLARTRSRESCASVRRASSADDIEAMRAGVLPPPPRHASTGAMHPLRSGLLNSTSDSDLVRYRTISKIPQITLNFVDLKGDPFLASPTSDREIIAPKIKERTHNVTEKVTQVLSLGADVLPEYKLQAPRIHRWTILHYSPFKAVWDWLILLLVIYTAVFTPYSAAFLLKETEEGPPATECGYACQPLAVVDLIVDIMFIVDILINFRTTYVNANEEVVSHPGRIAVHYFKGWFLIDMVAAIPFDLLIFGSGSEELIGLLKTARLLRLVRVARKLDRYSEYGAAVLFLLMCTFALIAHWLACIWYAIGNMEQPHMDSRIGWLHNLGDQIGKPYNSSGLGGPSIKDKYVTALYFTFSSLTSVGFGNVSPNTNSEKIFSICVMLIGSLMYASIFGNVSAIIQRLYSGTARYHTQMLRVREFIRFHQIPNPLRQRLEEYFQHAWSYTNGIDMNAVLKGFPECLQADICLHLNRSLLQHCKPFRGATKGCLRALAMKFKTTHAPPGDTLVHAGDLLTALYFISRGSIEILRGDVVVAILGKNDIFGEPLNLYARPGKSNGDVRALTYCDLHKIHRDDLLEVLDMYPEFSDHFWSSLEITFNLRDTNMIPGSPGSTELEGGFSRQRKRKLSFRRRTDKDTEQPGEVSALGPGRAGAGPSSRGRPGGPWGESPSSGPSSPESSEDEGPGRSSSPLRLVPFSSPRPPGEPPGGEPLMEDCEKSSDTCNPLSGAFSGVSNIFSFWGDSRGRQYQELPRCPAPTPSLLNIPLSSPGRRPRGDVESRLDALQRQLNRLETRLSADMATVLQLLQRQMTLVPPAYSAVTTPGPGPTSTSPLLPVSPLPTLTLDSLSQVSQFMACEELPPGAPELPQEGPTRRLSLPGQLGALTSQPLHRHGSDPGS
Nature of the experiment: hERG electrophysiology, automated whole-cell patch clamp (Patchliner). It is filed as cell-based. Conditions: CHO-K1 cells stably expressing hERG; whole-cell current, Hill fit. The method, then: Example 10. Evaluation of hERG Activities
This assay is used to evaluate the disclosed compounds' inhibition activities against the hERG channel.
CHO-K1 cells stably expressing hERG were grown in Ham's F-12 Medium with Glutamine containing 10% heat-inactivated FBS, 1% Penicillin/Streptomycin, Hygromycin (100 μg/ml) and G418 (100 μg/ml). Cells were grown in culture flasks at 37° C. in a 5% CO2-humidified incubator.
The cells were bathed in an extracellular solution containing 140 mM NaCl, 4 mM KCl, 2 mM CaCl2), 1 mM MgCl2, 5 mM Glucose, 10 mM HEPES; pH adjusted to 7.4 with NaOH; 295-305 mOsm. The internal solution contained 50 mM KCl, 10 mM NaCl, 60 mM KF, 20 mM EGTA, 10 mM HEPES; pH adjusted to 7.2 with KOH; 285 mOsm. All compounds were dissolved in DMSO at 30 mM. Compound stock solutions were freshly diluted with external solution to concentrations of 30 nM, 100 nM, 300 nM, 1 μM, 3 μM, 10 μM, 30 μM and 100 μM. The highest content of DMSO (0.3%) was present in 100 μM.
The voltage protocol (see Table B) was designed to simulate voltage changes during a cardiac action potential with a 300 ms depolarization to +20 mV (analogous to the plateau phase of the cardiac action potential), a repolarization for 300 ms to −50 mV (inducing a tail current) and a final step to the holding potential of −80 mV. The pulse frequency was 0.3 Hz. Control (compound-free) and compound pulse trains for each compound concentration applied contained 70 pulses.
Whole-cell current recordings and compound application were enabled by means of an automated patch clamp platform Patchliner (Nanion). EPC 10 patch clamp amplifier (HEKA) along with Patchmaster software (HEKA Elektronik Dr. Schulze GmbH) was used for data acquisition. Data were sampled at 10 kHz without filtering. Increasing compound concentrations were applied consecutively to the same cell without washouts in between.
AUC and PEAK values were obtained with Patchmaster (HEKA Elektronik Dr. Schulze GmbH). To determine IC50 the last single pulse in the pulse train corresponding to a given compound concentration was used. Obtained AUC and PEAK values in the presence of compound were normalized to control values in the absence of compound. Using Origin (OridinLab), IC50 was derived from data fit to Hill equation: Icompound/Icontrol=(100−A)/(1+([compound]/IC50)nH)+A, where IC50 is the concentration at which current inhibition is half-maximal, [compound] is the applied compound concentration, A is the fraction of current that is not blocked and nH is the Hill coefficient.
A general note: hERG is a cardiac potassium channel; its block is linked to QT prolongation.

T1 sequence (P22001 whole entry): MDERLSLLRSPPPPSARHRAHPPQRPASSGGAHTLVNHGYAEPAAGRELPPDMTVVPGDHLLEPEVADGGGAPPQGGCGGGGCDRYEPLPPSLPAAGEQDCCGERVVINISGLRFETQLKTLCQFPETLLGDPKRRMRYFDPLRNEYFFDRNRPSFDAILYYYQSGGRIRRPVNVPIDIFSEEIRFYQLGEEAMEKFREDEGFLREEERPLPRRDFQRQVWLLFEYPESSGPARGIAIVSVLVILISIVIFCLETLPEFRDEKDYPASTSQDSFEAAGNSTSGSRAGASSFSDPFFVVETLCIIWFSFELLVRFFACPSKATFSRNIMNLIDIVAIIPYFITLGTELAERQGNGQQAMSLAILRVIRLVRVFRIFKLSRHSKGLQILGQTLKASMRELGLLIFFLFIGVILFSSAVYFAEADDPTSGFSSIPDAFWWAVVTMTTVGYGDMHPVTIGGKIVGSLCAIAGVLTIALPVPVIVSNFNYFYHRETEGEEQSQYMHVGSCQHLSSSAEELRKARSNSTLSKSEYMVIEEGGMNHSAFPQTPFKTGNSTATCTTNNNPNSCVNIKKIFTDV

As for `O=C1[C@@H]2C[C@H](c3c(O)ccc(Cl)c3Cl)CCN2C(=O)[C@H]2C[C@H](O)CN12` (single isomer, unassigned; isomer 2) [Compound 65, 7-(2,3-dichloro-6-hydroxyphenyl)-2-hydroxyhexahydro-1H-pyrido[1,2-a]pyrrolo[1,2-d]pyrazine-5,11(5aH,11aH)-dione isomer 2], the IC50 (usually the concentration at which inhibition is half-maximal) was < 1 µM on Kv1.3 potassium channel and < 30 µM against hERG channel.

`O=C1N[C@H](CO)C(=O)N2CC[C@@H](c3c(O)cc(Cl)c(Cl)c3Cl)C[C@@H]12` [Compound 60, (8R,9aS)-3-((3R)-hydroxymethyl)-8-(2,3,4-trichloro-6-hydroxyphenyl)-hexahydro-2H-pyrido[1,2-a]pyrazine-1,4-dione]: the 50% inhibitory concentration (IC50) at Kv1.3 potassium channel was < 1 µM; at hERG channel, > 30 µM.

For `O=C1NCC(=O)N2CC[C@@H](c3c(O)ccc(Cl)c3Cl)C[C@@H]12` [Compound 41, (8R,9aS)-8-(2,3-dichloro-6-hydroxyphenyl)hexahydro-4H-pyrido[1,2-a]pyrazine-1,4(6H)-dione], the 50% inhibitory concentration (IC50) at Kv1.3 potassium channel was < 1 µM; at hERG channel it was > 30 µM.

In the case of `O=C1N[C@@H](CO)C(=O)N2CC[C@@H](c3c(O)ccc(Cl)c3Cl)C[C@@H]12` [Compound 53, (3S,8R,9aS)-8-(2,3-dichloro-6-hydroxyphenyl)-3-(hydroxymethyl)hexahydro-4H-pyrido[1,2-a]pyrazine-1,4(6H)-dione], the IC50 is < 1 µM against Kv1.3 potassium channel and > 30 µM on hERG channel.

As to `O=C1NCCC(=O)N2CCC(c3c(O)ccc(Cl)c3Cl)CC12` (centres unmarked) [Compound 8, 9-(2,3-dichloro-6-hydroxyphenyl)-decahydropyrido[1,2-a][1,4]diazepine-1,5-dione], the concentration for half-maximal inhibition (IC50) was < 1 µM at Kv1.3 potassium channel and > 30 µM at hERG channel.

For the compound `C[C@@H](O)[C@H]1NC(=O)[C@@H]2C[C@H](c3c(O)ccc(Cl)c3Cl)CCN2C1=O` [Compound 24, (3R,8R,9aS)-8-(2,3-dichloro-6-hydroxyphenyl)-3-[(1R)-1-hydroxyethyl]-hexahydro-2H-pyrido[1,2-a]pyrazine-1,4-dione], the half-inhibitory concentration (IC50) on Kv1.3 potassium channel was < 1 µM; against hERG channel, > 30 µM.

On to `O=C1[C@@H]2C[C@H](c3c(O)ccc(Cl)c3Cl)CCN2C(=O)CN1C1CC(O)C1` (relative stereo) [Compound 20, (8R,9aS)-rel-8-(2,3-dichloro-6-hydroxyphenyl)-2-(3-hydroxycyclobutyl)-hexahydropyrido[1,2-a]pyrazine-1,4-dione], for which the 50% inhibitory concentration (IC50) on Kv1.3 potassium channel was < 1 µM; against hERG channel, > 30 µM.

Turning to `O=C1NC(=O)N2CC[C@H](c3c(O)ccc(Cl)c3Cl)C[C@@H]12` (single isomer, unassigned; diastereoisomer 1) [Compound 9, 7-(2,3-dichloro-6-hydroxyphenyl)tetrahydro-imidazo[1,5-a]pyridine-1,3(2H,5H)-dione diastereoisomer 1], the IC50 against Kv1.3 potassium channel is < 1 µM; on hERG channel, > 30 µM.

`CC(C)[C@H](O)[C@H]1NC(=O)[C@@H]2C[C@H](c3c(O)ccc(Cl)c3Cl)CCN2C1=O` [Compound 30, (3R,8R.9aS)-8-(2,3-dichloro-6-hydroxyphenyl)-3-[(1S)-1-hydroxy-2-methylpropyl]-hexahydro-2H-pyrido[1,2-a]pyrazine-1,4-dione]: the figures for the IC50 against Kv1.3 potassium channel and against hERG channel were < 1 µM and > 30 µM, respectively.

For `O=C1[C@@H]2C[C@H](O)CN2C(=O)[C@@H]2C[C@H](c3c(O)ccc(Cl)c3Cl)CCN12` (single isomer, unassigned; isomer 4) [Compound 35, 7-(2,3-dichloro-6-hydroxyphenyl)-2-hydroxyhexahydro-1H-pyrido[1,2-a]pyrrolo[1,2-d]pyrazine-5,11(5aH,11aH)-dione isomer 4], the IC50 against Kv1.3 potassium channel is < 1 µM; against hERG channel, < 30 µM.
